Test results taken from ChEMBL document CHEMBL5370611, “Discovery of 4,5,6,7-Tetrahydropyrazolo[1.5-a]pyrizine Derivatives as Core Protein Allosteric Modulators (CpAMs) for the Inhibition of Hepatitis B Virus” (J Med Chem, 2023).
In brackets after ≈: the same amount, converted by molar mass.

What was measured:
Hepatitis B virus = test: Antiviral activity against HBV infected in human HepG2.2.15 cells assessed as reduction in HBV DNA replication measured after 5 days by qPCR analysis; type: functional, organism-based; details: HepG2.2.15, 120 h
[1] = Cytotoxicity against human HepDE19 cells assessed as reduction in cell viability measured after 5 days by CCK-8 method; type: functional; details: HepDE19, 120 h, time 5 day
[2] = Selectivity index, ratio of CC50 for human HepDE19 cells assessed as reduction in cell viability to EC50 for HBV infected in human HepG2.2.15 cells assessed as reduction in HBV DNA replication; type: toxicity, cell-based; details: HBV-infected HepG2.2.15 cells (EC50)
[3] = Lyophilization solubility of the compound in phosphate buffer at pH 6.5 incubated for 1 hr under stirring condition and 2 hrs under shaking condition by HPLC-UV analysis; type: physicochemical
[4] = Metabolic stability in mouse liver microsomes assessed as clearance at 1 uM preincubated for 10 mins and measured upto 30 mins in presence of NADPH generating system by LC-MS/MS analysis; type: ADME, Microsome; details: time < 40 min
[5] = Metabolic stability in human liver microsomes assessed as clearance at 1 uM preincubated for 10 mins and measured upto 30 mins in presence of NADPH generating system by LC-MS/MS analysis; type: ADME, Microsome; details: time < 40 min

Row | SMILES | EC50 (Hepatitis B virus) | CC50 [1] | selectivity ratio [2] | solubility at 3 h [3] | CLhep predicted at 1 µM [4] | CLhep predicted at 1 µM [5]
1 | CC1c2c(-c3ccc(F)cc3)cnn2CCN1C(=O)Nc1ccccc1 (configuration not stated) | 1.85 µM | 45 µM | 24 | < 1 µg/mL |  | 
2 | O=C(Nc1cccc(F)c1)N1CCn2ncc(-c3ccc(F)cc3)c2C1 | 0.414 µM | 32 µM | 76 |  |  | 
3 | Cc1cc(NC(=O)N2CCn3ncc(-c4ccc(F)cc4)c3C2)ccc1F | 0.032 µM | 26 µM | 830 |  | 68 mL/min/kg | 16 mL/min/kg
4 | Cc1ccc(NC(=O)N2CCn3ncc(-c4ccc(F)cc4)c3C2)cc1 | 1.2 µM | 34 µM | 28 |  |  | 
5 | O=C(Nc1ccc(F)c(Cl)c1)N1CCn2ncc(-c3ncc(F)cn3)c2C1 | 0.128 µM | 32 µM | 250 | 6 µg/mL (≈ 15.4 µM) | 69 mL/min/kg | 14 mL/min/kg
6 | CN(C(=O)N1CCn2ncc(-c3ccc(F)cc3)c2C1)c1ccccc1 | 2.19 µM | 93 µM | 42 |  |  | 
7 | O=C(Nc1ccccc1F)N1CCn2ncc(-c3ccc(F)cc3)c2C1 | 0.939 µM | 12 µM | 13 |  |  | 
8 | O=C(Nc1cc(F)cc(F)c1)N1CCn2ncc(-c3ccc(F)cc3)c2C1 | 0.219 µM | 11 µM | 49 |  |  | 
9 | O=C(Nc1ccc(F)c(Cl)c1)N1CCn2ncc(N3CCOCC3)c2C1 | 0.266 µM | > 100 µM | > 376 | 170 µg/mL (≈ 448 µM) | 34 mL/min/kg | 7.2 mL/min/kg
10 | O=C(c1ccccc1)N1CCn2ncc(-c3ccc(F)cc3)c2C1 | 3.76 µM |  |  |  |  | 
11 | O=C(Nc1cccnn1)N1CCn2ncc(-c3ccc(F)cc3)c2C1 | > 10 µM | > 100 µM |  | 2 µg/mL (≈ 5.91 µM) | 34 mL/min/kg | 7 mL/min/kg
12 | C[C@H]1[C@H](C)n2ncc(N3CCCC3=O)c2CN1C(=O)Nc1cc(F)c(F)c(F)c1 | 0.052 µM | > 100 µM | > 1920 | 525 µg/mL (≈ 1290 µM) | 73 mL/min/kg | 15 mL/min/kg
13 | O=C(Nc1ccc(F)c(Cl)c1)N1CCn2ncc(-c3ccccc3F)c2C1 | 0.033 µM | 16 µM | 476 | < 1 µg/mL | 74 mL/min/kg | 19 mL/min/kg
14 | O=C(Nc1ccccc1Cl)N1CCn2ncc(-c3ccc(F)cc3)c2C1 | > 10 µM | > 100 µM |  |  |  | 
15 | O=C(NC1CCCC1)N1CCn2ncc(-c3ccc(F)cc3)c2C1 | 1.85 µM | > 100 µM | > 54 |  |  | 
16 | O=C(Nc1ccccc1)N1CCn2nnc(-c3ccc(F)cc3)c2C1 | 0.411 µM | > 100 µM | > 243 | 32 µg/mL (≈ 94.9 µM) | 87 mL/min/kg | 14 mL/min/kg
17 | O=C(Cc1ccccc1)N1CCn2ncc(-c3ccc(F)cc3)c2C1 | 3.14 µM | > 100 µM | > 32 |  |  | 
18 | O=C(Nc1ccc(F)c(Cl)c1)N1CCn2ncc(N3CCCC3=O)c2C1 | 0.052 µM | > 100 µM | > 1930 | 160 µg/mL (≈ 423 µM) | 65 mL/min/kg | 7.8 mL/min/kg
19 | O=C(Nc1ccccc1)N1CCc2[nH]nc(-c3ccc(F)cc3)c2C1 | 0.377 µM | 59 µM | 156 | 5 µg/mL (≈ 14.9 µM) | 63 mL/min/kg | 21 mL/min/kg

Row | SMILES | EC50 (Hepatitis B virus) | CC50 [1] | selectivity ratio [2] | solubility at 3 h [3] | CLhep predicted at 1 µM [4] | CLhep predicted at 1 µM [5]
20 | CCc1cccc(NC(=O)N2CCn3ncc(-c4ccc(F)cc4)c3C2)c1 | 0.248 µM | 55 µM | 220 |  |  | 
21 | C[C@@H]1Cn2ncc(-c3ccc(F)cc3)c2CN1C(=O)Nc1ccc(F)c(Cl)c1 | 0.111 µM | 26 µM | 234 | < 1 µg/mL |  | 
22 | O=C(Nc1ccc(F)c(Cl)c1)N1CCn2ncc(NC3CCCC3)c2C1 | 2.3 µM | > 100 µM | > 43 | < 1 µg/mL | 76 mL/min/kg | 19 mL/min/kg
23 | O=C(Nc1cc(F)c(F)c(F)c1)N1CCn2ncc(-c3ccc(F)cc3)c2C1 | 0.387 µM | 31 µM | 80 |  | 63 mL/min/kg | 16 mL/min/kg
24 | O=C(Nc1ccc(F)c(Cl)c1)N1CCn2ncc(N3CCCC3)c2C1 | 0.22 µM | 97 µM | 440 | 134 µg/mL (≈ 368 µM) | 79 mL/min/kg | 16 mL/min/kg
25 | CCCc1cccc(NC(=O)N2CCn3ncc(-c4ccc(F)cc4)c3C2)c1 | 2.71 µM | 13 µM | 5 | 4.4 µg/mL (≈ 11.6 µM) |  | 
26 | C[C@H]1Cn2ncc(N3CCOCC3=O)c2CN1C(=O)Nc1cc(F)c(F)c(F)c1 | 0.063 µM | > 100 µM | > 1590 | 415 µg/mL (≈ 1010 µM) | 29 mL/min/kg | 6.2 mL/min/kg
27 | O=C(Nc1ccc(Cl)cc1)N1CCn2ncc(-c3ccc(F)cc3)c2C1 | 0.366 µM | 29 µM | 79 |  |  | 
28 | Cc1cccc(NC(=O)N2CCn3ncc(-c4ccc(F)cc4)c3C2)c1 | 0.131 µM | 88 µM | 672 |  |  | 
29 | O=C(NCc1ccccc1)N1CCn2ncc(-c3ccc(F)cc3)c2C1 | 1.44 µM | 91 µM | 63 |  |  | 
30 | O=C(Nc1ccccn1)N1CCn2ncc(-c3ccc(F)cc3)c2C1 | > 10 µM | > 100 µM |  | 2 µg/mL (≈ 5.93 µM) | 80 mL/min/kg | 17 mL/min/kg
31 | O=C(Nc1cccc(Cl)c1)N1CCn2ncc(-c3ccc(F)cc3)c2C1 | 0.308 µM | 87 µM | 284 | < 1 µg/mL | 71 mL/min/kg | 18 mL/min/kg
32 | O=C(Nc1ccccc1)N1CCn2ncc(-c3ccc(F)cc3)c2C1 | 0.323 µM | 66 µM | 204 | 3 µg/mL (≈ 8.92 µM) | 76 mL/min/kg | 17 mL/min/kg
33 | O=C(Nc1ccc(F)c(Cl)c1)N1CCn2ncc(-c3ccc(F)cn3)c2C1 | 0.11 µM | 35 µM | 320 | < 1 µg/mL | 80 mL/min/kg | 16 mL/min/kg
34 | C[C@@H]1CN(C(=O)Nc2ccc(F)c(Cl)c2)Cc2c(-c3ccc(F)cc3)cnn21 | 0.037 µM | 97 µM | 2620 |  |  | 
35 | O=C(Nc1cc(F)c(F)c(F)c1)N1CCn2ncc(N3CCCC3=O)c2C1 | 0.252 µM | 26 µM | 101 | 150 µg/mL (≈ 395 µM) | 51 mL/min/kg | 6.2 mL/min/kg
36 | C[C@H]1Cn2ncc(-c3ccc(F)cc3)c2CN1C(=O)Nc1ccc(F)c(Cl)c1 | 0.012 µM | 26 µM | 2170 | < 1 µg/mL |  | 
37 | C[C@H]1CN(C(=O)Nc2ccc(F)c(Cl)c2)Cc2c(-c3ccc(F)cc3)cnn21 | 0.133 µM | 28 µM | 210 |  |  | 
38 | O=C(Nc1ccc(F)c(F)c1)N1CCn2ncc(-c3ccc(F)cc3)c2C1 | 0.155 µM | 34 µM | 222 |  | 65 mL/min/kg | 16 mL/min/kg
